The values that follow come from ChEMBL document CHEMBL1201862, “PubChem BioAssay data set” (2004).

Among the test systems are A498; COLO 205; HCT-15; HOP-92; KM12; MOLT-4; Malme-3M; NCI-H226; RPMI-8226; SF-268; SN12C; SR; SW-620; TK-10; BT-549; MDA-MB-435; SK-MEL-5; SK-OV-3; UACC-62.
Holding throughout (experiment): NCI anticancer screen, dose series, 48 h

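Briefly, cells in 96-well plates were exposed to five compound concentrations for 48 h, and endpoints were estimated by linear interpolation. At the GI50, growth is halved.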 The source made the active and inactive calls. No stated cut-off is given here; in the data, active = GI50 up to about 1.1 µM and inactive = higher. A value given as a limit tells only on which side of the number the result lay.

Regarding `CCOC(=O)C1Sc2ccccc2N=C1C` (centres undefined), the GI50 with A498 was > 100 µM (inactive); in the experiment on COLO 205 it was > 100 µM (inactive); in the experiment with HCT-15 it was greater than 100 µM; in the experiment with HOP-92, > 100 µM (inactive); in the experiment with KM12, > 100 µM (inactive); in the experiment on MOLT-4 it was > 100 µM (inactive). Besides, the GI50 in the experiment with Malme-3M, with NCI-H226, in the experiment with RPMI-8226, in the experiment on SF-268, with SN12C and in the experiment with SR was > 100 µM (inactive) in each case. Also, the GI50 in the experiment with SW-620 and in the experiment on TK-10 was > 100 µM (inactive) throughout.
Turning to `COc1ccc(/C=C2\CCC(C)c3c2nc(N)c(C#N)c3-c2ccc(OC)c(OC)c2)cc1OC` (centres undefined), the GI50 in the experiment with BT-549 is 8 µM (inactive); with COLO 205 it was 6.56 µM (inactive); in the experiment on HCT-15, 5.71 µM; in the experiment on KM12 it was 7.6 µM (inactive); with MDA-MB-435, 10.8 µM (inactive); in the experiment with MOLT-4, 3.1 µM (inactive). The GI50 is 16.5 µM (inactive) in the experiment with Malme-3M; 5.7 µM (inactive) in the experiment on NCI-H226; 3.65 µM (inactive) in the experiment with RPMI-8226; 52.7 µM (inactive) in the experiment with SF-268; 4.84 µM (inactive) in the experiment on SK-MEL-5; 18.5 µM (inactive) in the experiment on SK-OV-3. Also, the GI50 with SN12C is > 100 µM (inactive); with SW-620, > 100 µM (inactive); with TK-10, 10.8 µM (inactive); with UACC-62, 88.1 µM (inactive).
In the case of `N#Cc1sc2c(c1OC(=O)c1ccc(C(F)(F)F)cc1)c(=O)n(-c1ccccc1)c(=S)n2-c1ccccc1`, the GI50 is 26.7 µM (inactive) in the experiment on A498; 21.6 µM (inactive) in the experiment on COLO 205; 21.8 µM in the experiment with HCT-15; 19.7 µM (inactive) in the experiment with HOP-92; 27.7 µM (inactive) in the experiment with KM12; 26.5 µM (inactive) in the experiment on MDA-MB-435. In addition, the GI50 in the experiment on MOLT-4 is 19.5 µM (inactive); with Malme-3M, 33 µM (inactive); in the experiment on NCI-H226 it was 29.8 µM (inactive); with RPMI-8226, 17.4 µM (inactive); in the experiment with SF-268, 33 µM (inactive); with SK-MEL-5 it was 24.9 µM (inactive). Also, the GI50 with SK-OV-3 was 38.5 µM (inactive); in the experiment on SN12C, 29.5 µM (inactive); in the experiment with SR it was 0.0481 µM (active); with SW-620 it was 40.2 µM (inactive); in the experiment with TK-10, 27.6 µM (inactive); in the experiment with UACC-62, 22.4 µM (inactive).
Take `Cc1nnc2sc(Cc3cnc(N)s3)nn12`: the GI50 was > 100 µM (inactive) in the experiment with COLO 205; greater than 100 µM in the experiment with HCT-15; > 100 µM (inactive) in the experiment with HOP-92; > 100 µM (inactive) with KM12; > 100 µM (inactive) in the experiment on MOLT-4; > 100 µM (inactive) in the experiment with Malme-3M. Further, the GI50 in the experiment with NCI-H226 was 77.6 µM (inactive); in the experiment with RPMI-8226, > 100 µM (inactive); in the experiment with SF-268, > 100 µM (inactive); in the experiment with SK-MEL-5 it was > 100 µM (inactive); in the experiment on SK-OV-3, > 100 µM (inactive); in the experiment on SN12C it was > 100 µM (inactive). The GI50 with SR, in the experiment on SW-620, with TK-10 and in the experiment on UACC-62 was > 100 µM (inactive) each time.
As to `C=CC1(c2ccc(Cl)c(Cl)c2)OCCO1`, the GI50 in the experiment on COLO 205 was > 100 µM (inactive); in the experiment on HCT-15, greater than 100 µM; in the experiment with HOP-92, 23.2 µM (inactive); in the experiment on KM12, > 100 µM (inactive); in the experiment with MDA-MB-435, > 100 µM (inactive); with MOLT-4 it was > 100 µM (inactive). Moreover, the GI50 was > 100 µM (inactive) in the experiment with Malme-3M; 71.8 µM (inactive) with NCI-H226; > 100 µM (inactive) in the experiment on RPMI-8226; > 100 µM (inactive) in the experiment with SF-268; > 100 µM (inactive) in the experiment with SK-MEL-5; > 100 µM (inactive) in the experiment with SK-OV-3. Moreover, the GI50 with SN12C was > 100 µM (inactive); with SR, 55.8 µM (inactive); in the experiment on SW-620 it was > 100 µM (inactive); in the experiment on TK-10, > 100 µM (inactive); in the experiment with UACC-62 it was > 100 µM (inactive).
Regarding `Cc1cc(N=C2C=C(Br)C(=O)C(Br)=C2)cc(CN(CC(=O)O)CC(=O)O)c1O`, the GI50 is > 100 µM (inactive) in the experiment with A498; > 100 µM (inactive) in the experiment with COLO 205; greater than 100 µM in the experiment with HCT-15; > 100 µM (inactive) in the experiment on MDA-MB-435; > 100 µM (inactive) in the experiment on MOLT-4; > 100 µM (inactive) in the experiment on Malme-3M. Moreover, the GI50 in the experiment with NCI-H226, in the experiment with RPMI-8226, in the experiment with SF-268, with SK-MEL-5, in the experiment on SK-OV-3 and with SN12C was > 100 µM (inactive) in each case. The GI50 in the experiment with SR, with SW-620 and with UACC-62 was > 100 µM (inactive) each time.
For `O=C1NCCCc2nonc21`, the GI50 in the experiment on COLO 205 was > 100 µM (inactive); in the experiment with HCT-15, greater than 100 µM; with HOP-92, > 100 µM (inactive); in the experiment on KM12, > 100 µM (inactive); in the experiment on MDA-MB-435, > 100 µM (inactive); with MOLT-4, > 100 µM (inactive). The GI50 in the experiment on Malme-3M, in the experiment on NCI-H226, with RPMI-8226, in the experiment on SF-268, in the experiment on SK-MEL-5 and in the experiment with SK-OV-3 was > 100 µM (inactive) in each case. Moreover, the GI50 with SN12C, in the experiment on SR, in the experiment on SW-620, in the experiment on TK-10 and in the experiment on UACC-62 was > 100 µM (inactive) in each case.
With `N#Cc1ccc(/C=N/NC(=O)CSCC(=O)N/N=C/c2ccc(C#N)cc2)cc1`, the GI50 in the experiment on A498 is > 100 µM (inactive); in the experiment with COLO 205, > 100 µM (inactive); in the experiment on HCT-15, greater than 100 µM; in the experiment on HOP-92, > 100 µM (inactive); in the experiment on KM12, > 100 µM (inactive); in the experiment with MDA-MB-435, > 100 µM (inactive). Besides, the GI50 with MOLT-4, with Malme-3M, in the experiment with NCI-H226, in the experiment on RPMI-8226, with SF-268 and in the experiment on SK-MEL-5 was > 100 µM (inactive) throughout. The GI50 is > 100 µM (inactive) in the experiment on SK-OV-3; > 100 µM (inactive) in the experiment with SN12C; > 100 µM (inactive) in the experiment on SR; > 100 µM (inactive) with SW-620; 56 µM (inactive) in the experiment with TK-10; > 100 µM (inactive) with UACC-62.
As for `CC(C)(C)[Si](C)(C)OC1/C(=C/C#N)C(n2ccc(=O)[nH]c2=O)OC1CO` (centres undefined), the GI50 with A498 is > 100 µM (inactive); in the experiment with COLO 205, > 100 µM (inactive); in the experiment with HOP-92, 3.01 µM (inactive); in the experiment with KM12, > 100 µM (inactive); with MDA-MB-435 it was > 100 µM (inactive); in the experiment with MOLT-4, > 100 µM (inactive). The GI50 with Malme-3M is > 100 µM (inactive); with SF-268 it was > 100 µM (inactive); in the experiment with SK-MEL-5, > 100 µM (inactive); in the experiment with SK-OV-3, > 100 µM (inactive); in the experiment on SR it was 42.1 µM (inactive); with SW-620, > 100 µM (inactive). Also, the GI50 with TK-10 and in the experiment with UACC-62 was > 100 µM (inactive) in each case.
`CSc1ncnc2c1CCN2`: the GI50 in the experiment with COLO 205 is 8.85 µM (inactive); in the experiment with HCT-15, greater than 100 µM; with HOP-92, 3.96 µM (inactive); in the experiment with KM12, 5.35 µM (inactive); in the experiment on MDA-MB-435, 2.21 µM (inactive); in the experiment with MOLT-4, > 10 µM (inactive). Also, the GI50 with Malme-3M is 6.62 µM (inactive); in the experiment with NCI-H226, > 10 µM (inactive); in the experiment with RPMI-8226, > 10 µM (inactive); in the experiment on SF-268, > 10 µM (inactive); in the experiment on SK-MEL-5, 2.92 µM (inactive); in the experiment on SK-OV-3, > 10 µM (inactive). The GI50 is > 100 µM (inactive) in the experiment with SN12C; 1.78 µM (inactive) in the experiment on SR; 7.96 µM (inactive) in the experiment with SW-620; > 10 µM (inactive) in the experiment on TK-10; 3.81 µM (inactive) in the experiment on UACC-62.
As to `O=C1NCCS(=O)(=O)N2CCC[C@@H]12`, the GI50 in the experiment on A498 is > 100 µM (inactive); in the experiment on COLO 205, > 100 µM (inactive); in the experiment on HCT-15, greater than 100 µM; in the experiment on HOP-92 it was > 100 µM (inactive); in the experiment on KM12 it was > 100 µM (inactive); in the experiment on MOLT-4, > 100 µM (inactive). Further, the GI50 in the experiment with Malme-3M is > 100 µM (inactive); with NCI-H226, 60.3 µM (inactive); in the experiment with RPMI-8226, > 100 µM (inactive); in the experiment with SF-268, > 100 µM (inactive); in the experiment on SK-MEL-5, > 100 µM (inactive); in the experiment on SK-OV-3, > 100 µM (inactive). The GI50 with SN12C, in the experiment with SR, with SW-620, with TK-10 and in the experiment with UACC-62 was > 100 µM (inactive) in each case.
For the molecule `COc1ccc(C=C2C(=O)OC(C)(C)OC2=O)cc1OC`, the GI50 in the experiment on A498 was > 100 µM (inactive); in the experiment on COLO 205, > 100 µM (inactive); in the experiment with HCT-15, greater than 100 µM; in the experiment with KM12 it was > 100 µM (inactive); with MOLT-4, > 100 µM (inactive); with Malme-3M, > 100 µM (inactive). Also, the GI50 in the experiment on RPMI-8226, in the experiment with SF-268, in the experiment on SK-MEL-5, with SK-OV-3, in the experiment with SN12C and in the experiment on SW-620 was > 100 µM (inactive) each time. Moreover, the GI50 in the experiment with TK-10 and with UACC-62 was > 100 µM (inactive) throughout.
Regarding `Cc1cc(C)c2c(c1)C(=O)/C(=C/c1ccccc1C(=O)O)C2`, the GI50 in the experiment with A498 was 67 µM (inactive); with BT-549 it was 78 µM (inactive); in the experiment on HCT-15 it was 54.3 µM; in the experiment on HOP-92 it was > 100 µM (inactive); in the experiment on KM12, 94.6 µM (inactive); in the experiment on MOLT-4 it was 34.4 µM (inactive). In addition, the GI50 with Malme-3M was > 100 µM (inactive); with NCI-H226, 30.9 µM (inactive); with RPMI-8226, 55.1 µM (inactive); with SF-268 it was 61.7 µM (inactive); with SK-MEL-5, 59.8 µM (inactive); in the experiment with SN12C, 53.8 µM (inactive). The GI50 was 62.4 µM (inactive) in the experiment with SR, 84.3 µM (inactive) with SW-620, > 100 µM (inactive) in the experiment with TK-10 and 89.5 µM (inactive) in the experiment with UACC-62.
